pIC50: −log10 of the molar value. Values after ≈ are worked out from the molar mass of the structure shown. Values belong to the molecule of their own block, whether it stands above or below them.
Key:
Staphylococcus aureus [1] = assay: Antibacterial activity against Staphylococcus aureus assessed as reduction in bacterial cell growth at 0.03 to 64 ug/ml incubated for 16 to 18 hrs by CLSI broth dilution method; format: functional
[2] = Cytotoxicity against human HepG2 cells assessed as reduction in cell viability at 0 to 50 uM incubated for 48 hrs by MTT assay; format: cell-based; details: read-out: LD50
Acinetobacter baumannii [3] = assay: Antibacterial activity against multidrug-resistant Acinetobacter baumannii assessed as reduction in bacterial cell growth incubated for 24 hrs by broth dilution method; format: functional
Acinetobacter baumannii [4] = assay: Antibacterial activity against Acinetobacter baumannii 1646 infected in mouse model of peritonitis assessed as increase in survival rate at 2 mg/kg, ip dosed at 1 hr post infection (reference value: 66%); format: functional; details: Acinetobacter baumannii, 1646, ip
Staphylococcus aureus [5] = assay: Antibacterial activity against Staphylococcus aureus assessed as diameter of zone inhibition at 100 ppm by disc diffusion method; format: functional; details: read-out: DIZ
Escherichia coli = assay: Antibacterial activity against Escherichia coli assessed as diameter of zone inhibition at 100 ppm by disc diffusion method; format: functional; details: read-out: DIZ
MCF7 = assay: Cytotoxicity against human MCF7 cells assessed as reduction in cell viability at 0.1 to 100 uM by MTT assay; format: functional, cell-based
Staphylococcus aureus [6] = assay: Antibacterial activity against methicillin-resistant Staphylococcus aureus assessed as reduction in bacterial cell growth at 0.5 to 512 ug/ml incubated for 24 hrs by CLSI broth microdilution method; format: functional
Helicobacter pylori = assay: Antibacterial activity against Helicobacter pylori assessed as reduction in bacterial cell growth by agar dilution method; format: functional
Staphylococcus aureus [7] = assay: Antibacterial activity against Staphylococcus aureus; format: functional
Staphylococcus aureus [8] = assay: Antibacterial activity against Staphylococcus aureus assessed as inhibition zone; format: functional
Bacillus subtilis = assay: Antibacterial activity against Bacillus subtilis MTCC 441 assessed as reduction in bacterial cell growth at 0.03 to 64 ug/ml incubated for 16 to 18 hrs by CLSI broth microdilution method; format: functional
Pseudomonas aeruginosa = assay: Antibacterial activity against Pseudomonas aeruginosa NCIM 2036 assessed as reduction in bacterial cell growth at 0.03 to 64 ug/ml incubated for 16 to 18 hrs by CLSI broth microdilution method; format: functional
Staphylococcus aureus [9] = assay: Antibacterial activity against Staphylococcus aureus NCIM 2901 assessed as reduction in bacterial cell growth at 0.03 to 64 ug/ml incubated for 16 to 18 hrs by CLSI broth microdilution method; format: functional

MIC (Staphylococcus aureus [1]): > 64 µg/mL
Compound: CN(C)/C=C/c1nc2ccccc2c(=O)n1-c1cccc(C(=O)NC2CC2)c1

Compound: CNc1nc(NCc2ccccc2)nc2cc(C)ccc12
CC50 at 48 h [2]: 23 µM | MIC (Acinetobacter baumannii [3]): 0.5 µM (≈ 0.139 µg/mL) | survival at 2 mg/kg (Acinetobacter baumannii [4]): 90%

Compound: N#Cc1ccc(/C=C/c2nc3ccccc3c(=O)n2-c2ccc(O)cc2)cc1
MIC (Staphylococcus aureus [1]): 8 µg/mL (≈ 21.9 µM)

MIC (Staphylococcus aureus [1]): 8 µg/mL (≈ 18.7 µM)
Compound: N#Cc1ccc(/C=C/c2nc3cccc(Cl)c3c(=O)n2-c2cccc(C(=O)O)c2)cc1

MIC (Staphylococcus aureus [1]): 0.5 µg/mL (≈ 1.16 µM)
Compound: N#Cc1ccc(/C=C/c2nc3ccccc3c(=O)n2-c2cccc(C(=O)NC3CC3)c2)cc1

Compound: Cc1nc2ccc(I)cc2c(=O)n1/N=C/c1cc(Br)cc(Br)c1O
zone of inhibition at 100 ppm (Staphylococcus aureus [5]): 14 mm | zone of inhibition at 100 ppm (Escherichia coli): 16 mm

MIC (Staphylococcus aureus [1]): 4 µg/mL (≈ 8.96 µM)
Compound: N#Cc1ccc(/C=C/c2nc3ccccc3c(=O)n2-c2cccc(C(=O)N3CCCC3)c2)cc1

Compound: Cc1nc2ccc(I)cc2c(=O)n1/N=C/c1cc(I)cc(I)c1O
zone of inhibition at 100 ppm (Staphylococcus aureus [5]): 14 mm | zone of inhibition at 100 ppm (Escherichia coli): 16 mm

Compound: CNc1nc(NCc2ccccc2)nc2cc(Cl)ccc12
CC50 at 48 h [2]: 23 µM | MIC (Acinetobacter baumannii [3]): 0.5 µM (≈ 0.149 µg/mL) | survival at 2 mg/kg (Acinetobacter baumannii [4]): 90%

Compound: CNc1nc(NCc2ccccc2)nc2ccc(Br)cc12
CC50 at 48 h [2]: 23 µM | MIC (Acinetobacter baumannii [3]): 0.5 µM (≈ 0.172 µg/mL) | survival at 2 mg/kg (Acinetobacter baumannii [4]): 90%

Compound: CNc1nc(NCc2ccccc2)nc2cc(Br)ccc12
CC50 at 48 h [2]: 23 µM | MIC (Acinetobacter baumannii [3]): 0.5 µM (≈ 0.172 µg/mL) | survival at 2 mg/kg (Acinetobacter baumannii [4]): 90%

Compound: Cn1cc[n+](C(Cn2cnc3ccccc3c2=O)c2cc3cc(Br)ccc3o2)c1 (stereo unspecified)
pIC50 (MCF7): 6.00 to 6.24

MIC (Staphylococcus aureus [1]): 8 µg/mL (≈ 17.3 µM)
Compound: N#Cc1ccc(/C=C/c2nc3ccccc3c(=O)n2-c2cccc(C(=O)N3CCOCC3)c2)cc1

Compound: Cc1nc2ccc(I)cc2c(=O)n1/N=C/c1cc(Cl)cc(Cl)c1O
zone of inhibition at 100 ppm (Staphylococcus aureus [5]): 14 mm | zone of inhibition at 100 ppm (Escherichia coli): 16 mm

MIC (Staphylococcus aureus [1]): 0.25 µg/mL (≈ 0.62 µM)
Compound: C#CCOc1cccc(-n2c(/C=C/c3ccc(C#N)cc3)nc3ccccc3c2=O)c1

MIC (Staphylococcus aureus [1]): 4 µg/mL (≈ 8.69 µM)
Compound: N#Cc1ccc(/C=C/c2nc3ccccc3c(=O)n2-c2cccc(C(=O)N3CCCCC3)c2)cc1

MIC (Staphylococcus aureus [1]): > 64 µg/mL
Compound: Cc1nc2ccccc2c(=O)n1-c1cccc(C(=O)NC2CC2)c1

MIC (Staphylococcus aureus [1]): 2 µg/mL (≈ 4.91 µM)
Compound: Cc1cccc2c(=O)n(-c3cccc(C(=O)O)c3)c(/C=C/c3ccc(C#N)cc3)nc12

Compound: C#Cc1cccc(-n2c(/C=C/c3ccc(C#N)cc3)nc3ccccc3c2=O)c1
MIC (Staphylococcus aureus [1]): 0.5 µg/mL (≈ 1.34 µM)

Compound: CNc1nc(NCc2ccccc2)nc2ccc(C)cc12
CC50 at 48 h [2]: 23 µM | MIC (Acinetobacter baumannii [3]): 0.5 µM (≈ 0.139 µg/mL) | survival at 2 mg/kg (Acinetobacter baumannii [4]): 90%

Compound: O=c1c2ccc(F)cc2ncn1CC(O)Cn1cncn1 (stereo unspecified)
MIC (Staphylococcus aureus [6]): 8 µg/mL (≈ 27.7 µM)

Compound: CNc1nc(NCc2ccccc2)nc2ccc(Cl)cc12
CC50 at 48 h [2]: 23 µM | MIC (Acinetobacter baumannii [3]): 0.5 µM (≈ 0.149 µg/mL) | survival at 2 mg/kg (Acinetobacter baumannii [4]): 90%

Compound: COc1cc(/C=N/n2c(C)nc3ccc(I)cc3c2=O)cc(I)c1O
zone of inhibition at 100 ppm (Staphylococcus aureus [5]): 14 mm | zone of inhibition at 100 ppm (Escherichia coli): 16 mm

Compound: C#CCOc1cccc(-n2c(/C=C/c3ccc(Cl)cc3)nc3ccccc3c2=O)c1
MIC (Staphylococcus aureus [1]): 32 µg/mL (≈ 77.5 µM)

Compound: COc1cc(/C=N/n2c(C)nc3ccc(Br)cc3c2=O)cc(Br)c1O
zone of inhibition at 100 ppm (Staphylococcus aureus [5]): 14 mm | zone of inhibition at 100 ppm (Escherichia coli): 16 mm

MIC (Helicobacter pylori): 25 µg/mL (≈ 49.4 µM)
Compound: Nc1nc(-n2c(-c3ccc([N+](=O)[O-])cc3)nc3ccccc3c2=O)nnc1-c1cccc(Cl)c1Cl

Compound: Cn1cc[n+](C(Cn2cnc3ccccc3c2=O)c2cc3ccccc3o2)c1 (stereo unspecified)
pIC50 (MCF7): 6.00 to 6.24

MIC (Staphylococcus aureus [7]): 32 µg/mL (≈ 104 µM)
Compound: Cc1ccc2c(c1)c(=O)n(-c1ccccc1)c1n[nH]c(=S)n21
inhibition zone (IZ) (Staphylococcus aureus [8]): 17 mm

MIC (Bacillus subtilis): 1.56 µg/mL (≈ 4.21 µM) | MIC (Pseudomonas aeruginosa): 1.56 µg/mL (≈ 4.21 µM) | MIC (Staphylococcus aureus [9]): 1.56 µg/mL (≈ 4.21 µM)
Compound: Cc1ccccc1NC(=O)Nn1c(-c2ccccc2)nc2ccccc2c1=O

Compound: CN(C)[C@@H]1C(O)=C(C(N)=O)C(=O)[C@@]2(O)C(O)=C3C(=O)c4c(O)cccc4[C@@](C)(O)[C@H]3C[C@@H]12 [TETRACYCLINE]
zone of inhibition at 100 ppm (Staphylococcus aureus [5]): 12 to 24 mm | zone of inhibition at 100 ppm (Escherichia coli): 6 to 27 mm
